Source: patent US20070179155A1, “N-phenyl-piperazine derivatives and methods of prophylaxis or treatment of 5ht2c receptor associated diseases” (priority 2003, published 2007)
pEC50: −log10 of the molar value.

Key:
human 5HT2C receptor = target: T1, human 5HT2C receptor (Homo sapiens, UniProt P28335); assay: Intracellular IP3 accumulation assay (IP Accumulation Assay); type: cell-based; details: HEK293 cells transfected with human 5HT2C receptor cDNA
T1 construct: expressed in transfected cells; host or cells: HEK293
T1 sequence (P28335 33-458): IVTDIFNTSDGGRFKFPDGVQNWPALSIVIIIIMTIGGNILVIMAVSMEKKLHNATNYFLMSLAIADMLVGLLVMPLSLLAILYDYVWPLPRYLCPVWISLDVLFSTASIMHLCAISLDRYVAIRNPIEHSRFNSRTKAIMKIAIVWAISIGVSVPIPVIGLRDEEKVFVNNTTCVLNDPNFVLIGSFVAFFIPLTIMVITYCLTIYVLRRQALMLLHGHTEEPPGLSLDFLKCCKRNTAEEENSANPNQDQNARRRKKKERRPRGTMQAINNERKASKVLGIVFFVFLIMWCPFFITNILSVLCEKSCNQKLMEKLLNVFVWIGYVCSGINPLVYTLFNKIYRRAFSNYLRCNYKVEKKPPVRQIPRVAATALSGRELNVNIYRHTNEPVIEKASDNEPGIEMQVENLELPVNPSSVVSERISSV
Method: HEK293 cells were transfected in 15 cm sterile dishes with or without (control) 16 ug of human 5HT2C receptor cDNA [for example see, Saltzman, A. G., et al. Biochem. Biophys. Res. Commun. 181, 1469-1478 (1991)] using 25 ul of lipofectamine. Cells were then incubated for 3-4 hours at 37° C./5% CO2 and then transfection media was removed and replaced with 100 ul of DMEM. Cells were then plated onto 100 cm sterile dishes. The next day cells were plated into 96 well PDL microtiter plates at a density of 55K/0.2 ml. Six hours latter, media was exchanged with [^3H]inositol (0.25 uCi/well) in inositol free DMEM and plates were incubated at 37° C./5% CO2 overnight. The next day, wells were aspirated and 200 ul of DMEM containing test compound, 10 uM pargyline, and 10 mM LiCl was added to appropriate wells. Plates were then incubated at 37° C./5% CO2 for three hours followed aspiration and by addition of fresh ice cold stop solution (1M KOH, 19 mM Na-borate, 3.8 mM EDTA) to each well. Plates were kept on ice for 5-10 min and the wells were neutralized by addition of 200 ul of fresh ice cold neutralization solution (7.5% HCl). Plates were then frozen until further processing is desired. The lysate was then transferred into 1.5 ml Eppendorf tubes and 1 ml of chloroform/methanol (1:2) was added/tube. […]

5HT2B receptor = 5HT2B receptor (Homo sapiens, UniProt P41595); assay: Activity against the 5HT2B receptor (selectivity); type: cell-based
Sequence of 5HT2B receptor (P41595 whole entry): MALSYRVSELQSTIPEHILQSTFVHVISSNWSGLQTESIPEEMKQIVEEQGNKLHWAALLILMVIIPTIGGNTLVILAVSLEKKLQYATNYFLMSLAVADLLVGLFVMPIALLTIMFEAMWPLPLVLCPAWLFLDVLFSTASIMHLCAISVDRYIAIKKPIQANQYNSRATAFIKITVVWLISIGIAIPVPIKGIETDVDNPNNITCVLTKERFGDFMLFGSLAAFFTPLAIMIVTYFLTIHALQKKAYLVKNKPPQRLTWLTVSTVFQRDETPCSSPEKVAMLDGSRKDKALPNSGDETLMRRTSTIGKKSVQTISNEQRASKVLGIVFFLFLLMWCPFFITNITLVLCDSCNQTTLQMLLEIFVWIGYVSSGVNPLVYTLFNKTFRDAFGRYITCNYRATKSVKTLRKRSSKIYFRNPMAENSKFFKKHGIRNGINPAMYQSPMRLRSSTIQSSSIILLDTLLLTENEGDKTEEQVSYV

5HT2A receptor = 5HT2A receptor (Homo sapiens, UniProt P28223); assay: EC50 against the 5HT2A receptor (selectivity); type: cell-based
Sequence of 5HT2A receptor (P28223 whole entry): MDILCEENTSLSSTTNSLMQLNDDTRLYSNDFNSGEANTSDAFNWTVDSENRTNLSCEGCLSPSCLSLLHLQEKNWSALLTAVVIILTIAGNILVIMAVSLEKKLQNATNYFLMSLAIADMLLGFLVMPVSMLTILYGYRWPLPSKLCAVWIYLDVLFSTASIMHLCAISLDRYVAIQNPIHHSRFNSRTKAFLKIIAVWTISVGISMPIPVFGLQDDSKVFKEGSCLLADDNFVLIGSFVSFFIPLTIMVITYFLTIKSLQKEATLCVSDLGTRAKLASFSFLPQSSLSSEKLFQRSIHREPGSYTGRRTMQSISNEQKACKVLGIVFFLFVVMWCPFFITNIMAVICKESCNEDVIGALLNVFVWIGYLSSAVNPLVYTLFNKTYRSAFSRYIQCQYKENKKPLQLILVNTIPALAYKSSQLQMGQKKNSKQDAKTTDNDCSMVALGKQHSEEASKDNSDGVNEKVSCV

basal food intake = assay: Inhibition of basal food intake in rats; type: in vivo, Male Sprague-Dawley rats; details: p.o.; for ED50: Rattus norvegicus, po
Method: Male Sprague-Dawley rats (225-325 g) were accustomed to a reverse day/night schedule (lights on 6:30 pm to 10:30 am) for at least 10 days prior to testing. On the test day, the animals were weighed and placed into individual cages (no bedding) at 9:00 am with free access to water. At 10:00 am, animals were injected with test compound or vehicle (2 ml/kg, p.o.), with treatment groups counter-balanced according to animal weights. Immediately upon lights out at 10:30 am, each animal was presented with a pre-weighed amount of food in a dish. Food consumption over different time points was then determined by weighing the food cup at 2, 4, 6 and 22 hrs after the food was presented. Thus, food consumption was measured at 2.5, 4.5, 6.5, and 22.5 hrs post-injection.

## C[C@@H]1CNCCN1c1cccc(Cl)c1F [Compound 23, (R)-1-(3-Chloro-2-fluoro-phenyl)-2-methyl-piperazine]
Human 5HT2C receptor
  pEC50: 8.13
5HT2B receptor
  activity against the 5HT2B receptor: essentially inactive
5HT2A receptor
  pEC50: 7.36

## C[C@@H]1CNCCN1c1cc(Cl)ccc1F [Compound 44, (R)-1-(5-Chloro-2-fluoro-phenyl)-2-methyl-piperazine]
Human 5HT2C receptor
  pEC50: 8.10
Basal food intake; 2 h, 2 hours after food presentation
  ED50: 33 µmol/kg
Basal food intake; 4 h, 4 hours after food presentation
  ED50: 58 µmol/kg
Basal food intake; 6 h, 6 hours after food presentation
  ED50: 97 µmol/kg
Basal food intake; 22 h, 22 hours after food presentation
  ED50: 441 µmol/kg
Basal food intake; all doses, first 4 hr after food presentation
  effect on food intake relative to vehicle-treated controls: inhibited food intake relative to vehicle-treated controls
Basal food intake; highest dose tested
  duration of food intake inhibition: maintained to 22 hrs after food presentation
5HT2B receptor
  activity against the 5HT2B receptor: essentially inactive
5HT2A receptor
  pEC50: 6.28
